# Measured values: US20160297830A1, “NOVEL COMPOUNDS USEFUL FOR THE TREATMENT OF BACTERIAL INFECTIOUS DISEASES” (GALAPAGOS NV, priority 2013, published 2016)
# Where two headings read alike, the source gives them in different places.
# Key:
# [1] = tested on: H. influenza Hi106 ATCC 51907; experiment: organism not typed; type: cell-based; conditions: read-out: MIC Hi106
# [2] = tested on: H. influenza Hi47 clinical strain, Ampicillin Resistant; experiment: organism not typed; type: cell-based; conditions: read-out: MIC Hi47
# [3] = tested on: Methicillin Resistant S. aureus Sa2 (MRSA); type: in vivo; conditions: Groin Sa, Study 1, sample time 31 h post infection
# [4] = tested on: Methicillin Resistant S. aureus (MRSA); experiment: Neutropenic mouse thigh infection model; conditions: Thigh Sa
# [5] = tested on: E. coli Ec113 efflux pump KO; experiment: microbe, parasite or virus in culture; type: cell-based; conditions: Escherichia coli, read-out: MIC Ec113 efflux pump KO
# [6] = tested on: S. aureus Sa1 ATCC 13709; experiment: microbe, parasite or virus in culture; type: cell-based; conditions: Staphylococcus aureus, ATCC13709, read-out: MIC Sa1
# [7] = target: DNA III Polymerase E (Escherichia coli, UniProt P10443); experiment: In vitro activity against DNA III Polymerase E, E. coli; type: biochemical; conditions: DNA polymerase III, E. coli; read-out: IC50 semiquantitative scoring, E. coli
# DNA III Polymerase E, sequence (P10443 whole entry): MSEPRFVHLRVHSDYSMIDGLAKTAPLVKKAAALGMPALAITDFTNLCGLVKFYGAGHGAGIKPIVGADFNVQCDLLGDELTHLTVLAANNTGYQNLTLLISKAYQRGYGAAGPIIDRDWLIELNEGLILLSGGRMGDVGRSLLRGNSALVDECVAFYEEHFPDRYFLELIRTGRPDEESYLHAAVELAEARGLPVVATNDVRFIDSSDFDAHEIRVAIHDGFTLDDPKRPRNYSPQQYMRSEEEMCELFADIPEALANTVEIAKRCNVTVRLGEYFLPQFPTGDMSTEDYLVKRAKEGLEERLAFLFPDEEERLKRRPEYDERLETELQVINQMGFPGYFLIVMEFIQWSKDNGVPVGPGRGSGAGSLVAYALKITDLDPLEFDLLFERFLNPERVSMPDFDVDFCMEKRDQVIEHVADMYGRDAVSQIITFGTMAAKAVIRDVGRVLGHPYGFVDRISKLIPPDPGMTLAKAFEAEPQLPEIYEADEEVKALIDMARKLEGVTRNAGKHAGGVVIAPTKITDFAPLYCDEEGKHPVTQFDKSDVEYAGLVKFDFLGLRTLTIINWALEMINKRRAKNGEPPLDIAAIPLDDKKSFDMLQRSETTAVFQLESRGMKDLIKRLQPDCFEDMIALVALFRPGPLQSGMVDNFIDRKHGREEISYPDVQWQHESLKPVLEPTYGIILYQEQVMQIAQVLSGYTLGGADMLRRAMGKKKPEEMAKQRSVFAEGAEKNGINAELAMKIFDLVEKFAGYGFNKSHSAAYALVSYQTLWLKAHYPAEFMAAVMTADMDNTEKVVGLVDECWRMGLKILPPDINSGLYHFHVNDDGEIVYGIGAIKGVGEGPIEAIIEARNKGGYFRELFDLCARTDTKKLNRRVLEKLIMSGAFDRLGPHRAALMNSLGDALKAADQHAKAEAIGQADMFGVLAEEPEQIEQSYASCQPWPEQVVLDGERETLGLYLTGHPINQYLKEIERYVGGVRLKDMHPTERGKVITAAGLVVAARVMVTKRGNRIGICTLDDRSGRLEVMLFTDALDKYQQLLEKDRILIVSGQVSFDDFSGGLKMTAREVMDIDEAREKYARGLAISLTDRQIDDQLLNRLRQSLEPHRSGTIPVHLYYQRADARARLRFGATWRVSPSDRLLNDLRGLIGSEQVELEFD
# In short: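 Recombinant enzyme (0.47 μg/mL diluted stock) in 20 mM Tris pH7.5, 8 mM DTT, 10 mM MgOAc, 0.05% CHAPS met compound series from 100 μM top, 1/5 steps. Activated calf thymus DNA, dNTPs and [α-33P]-dTTP substrate were added, and incubation ran 120 min at 30° C. IC50 came from filter-captured incorporated radioactivity versus controls.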
# [8] = tested on: S. aureus Sa4 NCTC 6571; experiment: Antibacterial activity assay (MIC), S. aureus Sa4; type: cell-based; conditions: Staphylococcus aureus, NCTC6571, read-out: MIC Sa4
# [9] = target: DNA Polymerase IIIα (DnaE) from Staphylococcus aureus (Staphylococcus aureus, UniProt Q6GG04); experiment: biochemical
# DNA Polymerase IIIα (DnaE) from Staphylococcus aureus, sequence (Q6GG04 1-1022): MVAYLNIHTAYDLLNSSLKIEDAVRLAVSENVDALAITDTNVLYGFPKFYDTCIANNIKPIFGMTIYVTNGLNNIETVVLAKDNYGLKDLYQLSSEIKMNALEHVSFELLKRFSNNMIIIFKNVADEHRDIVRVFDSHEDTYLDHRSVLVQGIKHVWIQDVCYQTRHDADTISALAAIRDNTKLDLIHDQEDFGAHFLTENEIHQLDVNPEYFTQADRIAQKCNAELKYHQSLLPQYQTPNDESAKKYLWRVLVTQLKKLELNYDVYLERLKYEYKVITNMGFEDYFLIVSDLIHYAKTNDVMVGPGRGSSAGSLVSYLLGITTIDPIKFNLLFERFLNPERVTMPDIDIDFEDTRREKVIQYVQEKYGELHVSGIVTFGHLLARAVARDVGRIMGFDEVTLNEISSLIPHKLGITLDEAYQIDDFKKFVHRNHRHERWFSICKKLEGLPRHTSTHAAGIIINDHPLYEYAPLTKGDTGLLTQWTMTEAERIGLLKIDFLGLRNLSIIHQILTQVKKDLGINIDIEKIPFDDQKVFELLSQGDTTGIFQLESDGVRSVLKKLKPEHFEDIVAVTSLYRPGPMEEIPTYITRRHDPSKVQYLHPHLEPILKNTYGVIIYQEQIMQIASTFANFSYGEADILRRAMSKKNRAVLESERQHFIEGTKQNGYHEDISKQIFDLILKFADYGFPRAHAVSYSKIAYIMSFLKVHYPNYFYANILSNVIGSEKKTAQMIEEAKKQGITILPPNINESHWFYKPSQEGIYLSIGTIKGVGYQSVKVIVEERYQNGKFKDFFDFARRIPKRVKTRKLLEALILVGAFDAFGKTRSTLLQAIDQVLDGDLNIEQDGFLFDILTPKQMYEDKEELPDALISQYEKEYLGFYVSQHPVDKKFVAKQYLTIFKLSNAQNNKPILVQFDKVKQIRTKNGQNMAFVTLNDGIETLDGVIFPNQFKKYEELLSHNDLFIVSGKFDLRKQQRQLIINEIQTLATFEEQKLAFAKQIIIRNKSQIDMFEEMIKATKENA
# [10] = tested on: Methicillin Resistant S. aureus Sa2 (MRSA); experiment: animal or person; type: in vivo; conditions: sample 24 h post infection, lung; for Active: Study 4
# [11] = tested on: H. influenza Hi10 clinical strain; experiment: organism not typed; type: cell-based; conditions: read-out: MIC Hi10
# [12] = tested on: E. coli Ec50 efflux pump KO; experiment: microbe, parasite or virus in culture; type: cell-based; conditions: Escherichia coli, read-out: MIC Ec50 efflux pump KO
# [13] = tested on: S. aureus Sa2 clinical strain NCIMB 41953, MRSA; experiment: microbe, parasite or virus in culture; type: cell-based; conditions: Staphylococcus aureus, read-out: MIC Sa2
# [14] = tested on: H. influenza Hi3 ATCC 31517; experiment: organism not typed; type: cell-based; conditions: read-out: MIC Hi3
# [15] = tested on: S. aureus Sa26 ATCC 25923; experiment: Antibacterial activity assay (MIC), S. aureus Sa26; type: cell-based; conditions: Staphylococcus aureus
# [16] = tested on: E. coli Ec1 ATCC 25922; experiment: Antibacterial activity assay (MIC), E. coli Ec1; type: cell-based; conditions: Escherichia coli, ATCC25922, read-out: MIC Ec1
# [17] = Study 3, 50 mg/kg SC BID, sample time 7 h PI
# [18] = Study 5, 5 mg/kg IP BID, sample time 24 h PI
# [19] = Study 5, 15 mg/kg IP BID, sample time 24 h PI
# [20] = Study 5, 50 mg/kg IP BID, sample time 24 h PI
# [21] = Study 5, 50 mg/kg SC BID, sample time 24 h PI
# [22] = Study 5, 200 mg/kg PO BID, sample time 24 h PI
# [23] = Study 6, 50 mg/kg PO BID, sample time 24 h PI
# [24] = Study 6, 100 mg/kg PO BID, sample time 24 h PI
smiles,measurement,setting,value
"CO[C@H]1C[C@H]2C=C[C@H]3[C@H]4O[C@]2(/C(C)=C/[C@@H](C)[C@@H]([C@@H](C)O)OC1=O)[C@@H]3[C@H](O)[C@@H](C)[C@H]4OC(=O)c1ccc[nH]1 [Nargenicin A1, reference compound]",MIC,[1],32 µg/mL
same,MIC,[2],64 µg/mL
same,Active,[3]; 50 mg/kg IP BID,Y
same,Log reduction vs. untreated,[3]; 50 mg/kg IP BID,−3.13
same,Active,[3]; 50 mg/kg PO BID,N
same,Log reduction vs. untreated,[3]; 50 mg/kg PO BID,−1.11
same,Active,[4]; [17],Y
same,Log reduction vs. untreated,[4]; [17],−4.52
same,Active,[4]; [18],N
same,Log reduction vs. untreated,[4]; [18],0.28
same,Active,[4]; [19],N
same,Log reduction vs. untreated,[4]; [19],−0.55
same,Active,[4]; [20],Y
same,Log reduction vs. untreated,[4]; [20],−5.40
same,Active,[4]; [21],Y
same,Log reduction vs. untreated,[4]; [21],−3.28
same,Active,[4]; [22],Y
same,Log reduction vs. untreated,[4]; [22],−4.47
same,Active,[4]; [23],Y
same,Log reduction vs. untreated,[4]; [23],−2.02
same,Active,[4]; [24],Y
same,Log reduction vs. untreated,[4]; [24],−4.06
same,MIC,[5],≤ 0.06 µg/mL
same,MIC,[6],0.125 µg/mL
same,IC50,[7],1.94 to 1940 nM
same,MIC,[8],≤ 0.06 µg/mL
same,IC50,[9],1.94 to 1940 nM
same,log reduction at 12.5 mg/kg,"[10]; Staphylococcus aureus, MRSA, in Mus musculus, po, 24 h, read-out: Log reduction vs. untreated, Study 4, 12.5 mg/kg PO BID",0.39
same,log reduction at 25 mg/kg,"[10]; Staphylococcus aureus, MRSA, in Mus musculus, po, 24 h, read-out: Log reduction vs. untreated, Study 4, 25 mg/kg PO BID",2.17
same,log reduction at 50 mg/kg,"[10]; Staphylococcus aureus, MRSA, in Mus musculus, po, 24 h, read-out: Log reduction vs. untreated, Study 4, 50 mg/kg PO BID",2.57
same,Active,[10]; 12.5 mg/kg PO BID,N
same,Active,[10]; 25 mg/kg PO BID,Y
same,Active,[10]; 50 mg/kg PO BID,Y
same,MIC,[11],32 µg/mL
same,MIC,[12],2 µg/mL
same,MIC,[13],0.125 µg/mL
same,MIC,[14],64 µg/mL
same,MIC,"[15]; ATCC25923, read-out: MIC Sa26",0.25 µg/mL
same,MIC,"[15]; ATCC25923, read-out: MIC Sa26 + 10% SH",0.5 µg/mL
same,MIC,"[15]; ATCC25923, read-out: MIC Sa26 + 50% SH",0.5 µg/mL
same,MIC,[16],> 64 µg/mL
